Assay results as given in ChEMBL document CHEMBL1158254, “HIV inhibitory natural products. 26. Quinoline alkaloids from Euodia roxburghiana” (J Nat Prod, 1996).
Active and inactive are the calls of the source. The rule behind the calls is not given here.

Experiments:
[1] = tested on: Human immunodeficiency virus 1; test: Antiviral activity against HIV1 infected in CEM-SS cells assessed as virus-induced cytopathic effect by XTT assay; type: functional, organism-based; conditions: for IC50: Human immunodeficiency virus 1, CEM-SS
[2] = molecular target: Human immunodeficiency virus type 1 reverse transcriptase (Human immunodeficiency virus 1, UniProt Q72547); test: Inhibition of HIV1 reverse transcriptase

Compound | Activity [1] | IC50 [1] | IC50 [2]
COc1c2ccc(OCC[C@H](C)O)cc2nc2occc12 | inactive |  | 
C=CC(C)(C)C1(CC=C(C)C)C(=O)Nc2ccccc2C1=O (configuration not stated) [BUCHAPINE] |  | 29 µM | 12 µM
COC(=O)[C@@H](C)CCOc1ccc2c(OC)c3ccoc3nc2c1 | inactive |  | 
CC(C)=CCOc1c(CC=C(C)C)c(O)nc2ccccc12 |  | 26.9 µM | 8 µM
COC(=O)/C(C)=C/COc1ccc2c(OC)c3ccoc3nc2c1 | inactive |  | 
